{"source": "paper PMC4535329", "about": "(Bioorganic & medicinal chemistry letters, 2015)", "key": {"Ca channel": {"tested_on": "Ca channel", "test": "Cardiovascular safety pharmacology: Ca channel", "format": "cell-based", "conditions": "read-out: Ca channel IC50"}, "mGlu4": {"molecular_target": "mGlu4 (Homo sapiens, UniProt Q14833)", "sequence (Q14833 33-912)": "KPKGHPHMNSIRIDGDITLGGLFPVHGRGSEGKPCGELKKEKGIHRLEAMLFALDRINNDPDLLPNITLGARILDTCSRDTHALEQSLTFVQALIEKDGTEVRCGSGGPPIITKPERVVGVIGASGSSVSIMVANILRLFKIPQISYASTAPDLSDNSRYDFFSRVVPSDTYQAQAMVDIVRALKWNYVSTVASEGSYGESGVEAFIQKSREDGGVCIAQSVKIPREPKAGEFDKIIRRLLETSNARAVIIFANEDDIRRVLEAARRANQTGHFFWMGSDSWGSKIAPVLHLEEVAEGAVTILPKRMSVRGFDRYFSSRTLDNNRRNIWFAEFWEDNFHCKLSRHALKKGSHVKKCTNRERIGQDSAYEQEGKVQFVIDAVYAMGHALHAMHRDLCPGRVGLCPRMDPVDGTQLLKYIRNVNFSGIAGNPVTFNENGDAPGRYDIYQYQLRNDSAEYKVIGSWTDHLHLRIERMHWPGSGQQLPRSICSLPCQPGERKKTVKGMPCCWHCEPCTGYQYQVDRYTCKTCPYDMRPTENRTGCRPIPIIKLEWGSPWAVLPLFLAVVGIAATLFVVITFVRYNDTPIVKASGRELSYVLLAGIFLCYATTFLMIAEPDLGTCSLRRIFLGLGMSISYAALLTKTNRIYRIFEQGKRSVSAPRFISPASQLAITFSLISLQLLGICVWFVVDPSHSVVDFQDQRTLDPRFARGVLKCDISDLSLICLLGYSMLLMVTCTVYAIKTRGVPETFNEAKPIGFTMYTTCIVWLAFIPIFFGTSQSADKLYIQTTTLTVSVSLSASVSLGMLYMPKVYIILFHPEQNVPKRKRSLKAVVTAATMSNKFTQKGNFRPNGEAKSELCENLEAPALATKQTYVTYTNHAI", "test": "mGlu selectivity", "format": "cell-based"}, "[1]": {"tested_on": "amphetamine-induced hyperlocomotion (AHL)", "test": "Reversal of amphetamine-induced hyperlocomotion", "format": "in vivo, male, Sprague Dawley rats"}, "Na channel": {"tested_on": "Na channel", "test": "Cardiovascular safety pharmacology: Na channel", "format": "cell-based", "conditions": "read-out: Na channel IC50"}, "mGlu3": {"molecular_target": "mGlu3 (Homo sapiens, UniProt Q14832)", "sequence (Q14832 23-879)": "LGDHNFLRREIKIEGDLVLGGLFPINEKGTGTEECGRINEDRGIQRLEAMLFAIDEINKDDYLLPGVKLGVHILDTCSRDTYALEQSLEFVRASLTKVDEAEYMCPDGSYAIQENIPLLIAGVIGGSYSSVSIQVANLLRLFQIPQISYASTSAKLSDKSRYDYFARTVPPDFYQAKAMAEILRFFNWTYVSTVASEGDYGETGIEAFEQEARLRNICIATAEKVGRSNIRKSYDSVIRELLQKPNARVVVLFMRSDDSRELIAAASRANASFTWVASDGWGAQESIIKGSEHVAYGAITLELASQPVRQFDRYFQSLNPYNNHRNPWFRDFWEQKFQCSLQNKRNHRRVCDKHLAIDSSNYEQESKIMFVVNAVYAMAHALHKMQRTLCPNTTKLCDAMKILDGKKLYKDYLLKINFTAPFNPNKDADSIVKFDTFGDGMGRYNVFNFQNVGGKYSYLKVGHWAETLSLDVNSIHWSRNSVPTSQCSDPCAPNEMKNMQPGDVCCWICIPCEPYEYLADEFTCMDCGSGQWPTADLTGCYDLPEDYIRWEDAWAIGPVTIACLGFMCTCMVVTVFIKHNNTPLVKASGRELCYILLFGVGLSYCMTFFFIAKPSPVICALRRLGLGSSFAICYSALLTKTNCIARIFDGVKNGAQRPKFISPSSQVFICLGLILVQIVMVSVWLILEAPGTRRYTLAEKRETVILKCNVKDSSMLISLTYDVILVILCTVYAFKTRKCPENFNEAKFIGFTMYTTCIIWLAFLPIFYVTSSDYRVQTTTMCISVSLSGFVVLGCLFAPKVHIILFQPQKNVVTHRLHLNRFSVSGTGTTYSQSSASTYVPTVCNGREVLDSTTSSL", "test": "mGlu selectivity: mGlu3 antagonist activity", "format": "cell-based"}, "mGlu6": {"molecular_target": "mGlu6 (Homo sapiens, UniProt O15303)", "sequence (O15303 25-877)": "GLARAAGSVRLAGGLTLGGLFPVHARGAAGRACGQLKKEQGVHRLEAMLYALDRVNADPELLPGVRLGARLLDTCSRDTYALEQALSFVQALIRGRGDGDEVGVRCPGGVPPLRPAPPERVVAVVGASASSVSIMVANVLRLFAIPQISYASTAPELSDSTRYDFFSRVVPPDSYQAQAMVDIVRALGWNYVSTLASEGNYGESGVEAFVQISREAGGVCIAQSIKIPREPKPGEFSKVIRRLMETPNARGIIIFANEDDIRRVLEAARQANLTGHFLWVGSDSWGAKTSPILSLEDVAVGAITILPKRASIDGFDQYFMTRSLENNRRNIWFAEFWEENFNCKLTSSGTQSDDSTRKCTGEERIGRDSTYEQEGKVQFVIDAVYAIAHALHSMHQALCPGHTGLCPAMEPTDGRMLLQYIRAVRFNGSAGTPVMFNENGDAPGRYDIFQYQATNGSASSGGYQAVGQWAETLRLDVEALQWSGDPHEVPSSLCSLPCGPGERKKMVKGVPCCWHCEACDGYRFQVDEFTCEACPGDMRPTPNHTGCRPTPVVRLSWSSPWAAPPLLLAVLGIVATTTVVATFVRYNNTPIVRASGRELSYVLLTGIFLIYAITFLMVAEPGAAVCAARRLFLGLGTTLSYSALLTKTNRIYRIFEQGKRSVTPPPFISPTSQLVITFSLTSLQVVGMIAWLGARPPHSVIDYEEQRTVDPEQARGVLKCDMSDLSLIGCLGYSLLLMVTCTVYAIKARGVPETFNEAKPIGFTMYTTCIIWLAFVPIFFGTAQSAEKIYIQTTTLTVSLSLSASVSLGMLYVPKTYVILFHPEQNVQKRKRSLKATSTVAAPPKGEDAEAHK", "test": "mGlu selectivity", "format": "cell-based"}, "mGlu2": {"molecular_target": "mGlu2 (Homo sapiens, UniProt Q14416)", "test": "mGlu selectivity", "format": "cell-based"}, "Solubility": {"test": "Solubility", "format": "physicochemical"}, "mGlu1": {"molecular_target": "mGlu1 (Homo sapiens, UniProt Q13255)", "test": "mGlu selectivity", "format": "cell-based"}, "mGlu7": {"molecular_target": "mGlu7 (Homo sapiens, UniProt Q14831)", "test": "mGlu selectivity", "format": "cell-based"}, "mGlu8": {"molecular_target": "mGlu8 (Homo sapiens, UniProt O00222)", "sequence (O00222 34-908)": "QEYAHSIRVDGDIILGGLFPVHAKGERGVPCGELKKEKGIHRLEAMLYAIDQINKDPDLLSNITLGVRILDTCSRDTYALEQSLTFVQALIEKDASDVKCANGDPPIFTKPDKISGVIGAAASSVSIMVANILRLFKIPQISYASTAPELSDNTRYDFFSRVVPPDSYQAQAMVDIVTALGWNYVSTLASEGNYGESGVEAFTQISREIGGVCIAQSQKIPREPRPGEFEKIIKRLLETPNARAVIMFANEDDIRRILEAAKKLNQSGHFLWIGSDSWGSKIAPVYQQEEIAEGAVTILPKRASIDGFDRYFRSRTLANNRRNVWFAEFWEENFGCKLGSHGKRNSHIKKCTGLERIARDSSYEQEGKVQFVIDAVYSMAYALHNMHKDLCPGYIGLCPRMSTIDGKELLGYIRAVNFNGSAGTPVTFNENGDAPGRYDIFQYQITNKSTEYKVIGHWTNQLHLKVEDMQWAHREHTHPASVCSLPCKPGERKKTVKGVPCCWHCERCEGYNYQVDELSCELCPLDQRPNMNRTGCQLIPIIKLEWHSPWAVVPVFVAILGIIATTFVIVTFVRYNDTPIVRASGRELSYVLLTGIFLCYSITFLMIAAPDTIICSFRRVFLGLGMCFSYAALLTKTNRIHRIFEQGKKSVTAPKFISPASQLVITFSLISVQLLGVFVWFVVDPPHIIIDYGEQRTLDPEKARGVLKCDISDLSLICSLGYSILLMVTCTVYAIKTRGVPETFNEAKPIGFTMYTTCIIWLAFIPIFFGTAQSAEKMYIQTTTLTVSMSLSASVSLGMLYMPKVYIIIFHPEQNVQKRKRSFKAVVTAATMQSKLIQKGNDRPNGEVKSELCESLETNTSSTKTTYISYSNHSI", "test": "mGlu selectivity", "format": "cell-based"}, "human mGlu5": {"molecular_target": "human mGlu5 (Homo sapiens, UniProt P41594)", "sequence (P41594 21-1212)": "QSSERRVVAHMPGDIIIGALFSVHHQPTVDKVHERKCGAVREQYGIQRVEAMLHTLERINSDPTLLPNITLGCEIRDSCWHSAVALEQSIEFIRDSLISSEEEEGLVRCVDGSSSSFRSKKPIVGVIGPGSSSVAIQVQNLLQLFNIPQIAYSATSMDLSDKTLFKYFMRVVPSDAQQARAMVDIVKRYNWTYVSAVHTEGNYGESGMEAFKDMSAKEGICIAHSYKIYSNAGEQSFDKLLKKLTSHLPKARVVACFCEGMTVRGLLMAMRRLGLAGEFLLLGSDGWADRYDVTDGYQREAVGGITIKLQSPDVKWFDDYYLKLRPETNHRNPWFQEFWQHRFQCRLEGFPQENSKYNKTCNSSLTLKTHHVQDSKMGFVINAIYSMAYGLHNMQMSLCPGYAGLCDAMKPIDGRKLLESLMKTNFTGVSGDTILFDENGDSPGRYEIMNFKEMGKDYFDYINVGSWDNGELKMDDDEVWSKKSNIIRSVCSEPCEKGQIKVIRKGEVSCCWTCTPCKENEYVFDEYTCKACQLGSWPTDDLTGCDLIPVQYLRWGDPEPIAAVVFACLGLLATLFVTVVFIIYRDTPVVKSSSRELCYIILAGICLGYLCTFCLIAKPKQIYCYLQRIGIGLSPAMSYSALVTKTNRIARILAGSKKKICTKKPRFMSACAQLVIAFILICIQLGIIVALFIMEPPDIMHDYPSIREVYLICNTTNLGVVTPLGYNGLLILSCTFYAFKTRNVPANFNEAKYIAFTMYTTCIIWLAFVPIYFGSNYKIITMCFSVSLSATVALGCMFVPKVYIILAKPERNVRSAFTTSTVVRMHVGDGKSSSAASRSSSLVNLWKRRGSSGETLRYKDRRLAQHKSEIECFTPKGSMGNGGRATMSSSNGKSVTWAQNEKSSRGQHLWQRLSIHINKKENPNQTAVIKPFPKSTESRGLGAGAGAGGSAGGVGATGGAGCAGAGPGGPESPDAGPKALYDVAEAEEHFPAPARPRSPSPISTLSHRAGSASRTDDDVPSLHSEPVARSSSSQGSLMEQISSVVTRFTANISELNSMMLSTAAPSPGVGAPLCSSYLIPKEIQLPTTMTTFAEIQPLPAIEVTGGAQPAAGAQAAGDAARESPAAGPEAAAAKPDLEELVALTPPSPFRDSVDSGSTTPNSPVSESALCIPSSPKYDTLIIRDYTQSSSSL", "test": "Calcium mobilization assay using HEK293 expressing human mGlu5", "format": "cell-based"}, "[2]": {"test": "Predicted hepatic clearance", "format": "in vitro ADME", "conditions": "rat"}, "[3]": {"test": "Predicted hepatic clearance", "format": "in vitro ADME", "conditions": "human"}, "mGlu5": {"tested_on": "mGlu5", "test": "Leftward fold-shift of a full glutamate concentration-response curve", "format": "cell-based", "conditions": "human and rat receptors, equal magnitude"}}, "data": [{"smiles": "O=C(c1ccc(F)cc1)N1CCc2nc(COc3cccc(F)c3)oc2C1", "note": "[4b]", "values": [{"measurement": "IC50", "setting": "Ca channel", "result": "> 10", "unit": "µM"}, {"measurement": "activity versus mGlu4", "setting": "mGlu4", "result": "> 10", "unit": "µM"}, {"measurement": "minimum effective dose in AHL", "setting": "[1]; rat, po", "result": 30, "unit": "mpk"}, {"measurement": "IC50", "setting": "Na channel", "result": "> 10", "unit": "µM"}, {"measurement": "IC50", "setting": "mGlu3", "result": 0.41, "unit": "µM"}, {"measurement": "mGlu3 Glu min", "setting": "mGlu3; % Glu min", "result": 8, "unit": "%"}, {"measurement": "activity versus mGlu6", "setting": "mGlu6", "result": "> 10", "unit": "µM"}, {"measurement": "activity versus mGlu2", "setting": "mGlu2", "result": "> 10", "unit": "µM"}, {"measurement": "solubility", "setting": "Solubility; FaSSIF", "result": 10, "unit": "µg/mL"}, {"measurement": "solubility", "setting": "Solubility; SGF", "result": 10, "unit": "µg/mL"}, {"measurement": "solubility, fold lower than 1", "setting": "Solubility; relative to 1", "result": 3, "unit": "×"}, {"measurement": "activity versus mGlu1", "setting": "mGlu1", "result": "> 10", "unit": "µM"}, {"measurement": "activity versus mGlu7", "setting": "mGlu7", "result": "> 10", "unit": "µM"}, {"measurement": "activity versus mGlu8", "setting": "mGlu8", "result": "> 10", "unit": "µM"}]}, {"smiles": "O=C(c1cc2ccccc2[nH]1)N1CCc2nc(COc3ccccc3)oc2C1", "note": "[11a]", "values": [{"measurement": "mGlu5 PAM activity (in words)", "setting": "human mGlu5", "result": "inactive"}]}, {"smiles": "O=C(c1c[nH]c2ccccc12)N1CCc2nc(COc3ccccc3)oc2C1", "note": "[11c]", "values": [{"measurement": "solubility (in words)", "setting": "Solubility", "result": "poor solubility"}]}, {"smiles": "O=C(c1n[nH]c2ccccc12)N1CCc2nc(COc3ccccc3)oc2C1", "note": "[11e]", "values": [{"measurement": "solubility (in words)", "setting": "Solubility", "result": "poor solubility"}]}, {"smiles": "O=C(c1n[nH]c2ncccc12)N1CCc2nc(COc3ccccc3)oc2C1", "note": "[11h]", "values": [{"measurement": "ago-PAM activity", "setting": "human mGlu5", "result": "modest ago-PAM activity"}, {"measurement": "ligand efficiency", "setting": "human mGlu5", "result": 0.31}, {"measurement": "MED in AHL, fold higher than for 1", "setting": "[1]; relative to 1", "result": 3, "unit": "fold"}, {"measurement": "predicted hepatic clearance CLhep", "setting": "[2]", "result": 36, "unit": "mL/min/kg"}, {"measurement": "predicted hepatic clearance CLhep", "setting": "[3]", "result": 9.1, "unit": "mL/min/kg"}, {"measurement": "fold-shift", "setting": "mGlu5", "result": "7.3–9.3 x"}]}]}
